The species entered for the first assay is Cavia porcellus. Kind of assay: Ability to Inhibit amplitude of the electrically stimulated guinea pig ileum by 50%. Format: functional, organism-based.
With `N[C@@H](Cc1ccc(O)cc1)C(=O)NCC(=O)NCC(=O)NC1CCc2ccccc21` (some centres undefined), the IC50 (commonly the concentration needed to halve the response being measured) came out at 2600 nM.

The species entered for a further assay is Cavia porcellus. Kind of assay: Ability to Inhibit amplitude of the electrically stimulated guinea pig ileum by 50%; Inactive at 1.7E-6 concentration. Format: functional, organism-based.
In the case of `CC(C)C[C@@H](NC(=O)[C@@H](Cc1ccccc1)NC(=O)CNC(=O)C(C)NC(=O)[C@](C)(N)Cc1ccc(O)cc1)C(=O)O` (stereo in doubt), the IC50 result is “Not Active”.

System in a further assay: not listed separately
Kind of assay: Ratio of IC50 of [D-Ala2, D-Leu5]-enkephalin to that of the compound, in the guinea pig ileum assay. Format: functional.
For the molecule `C[C@@H](NC(=O)[C@@H](N)Cc1ccc(O)cc1)C(=O)NCC(=O)NC1CCc2ccccc21` (some centres undefined), the Ratio came to 0.47.

The species named for a further assay is Cavia porcellus. Kind of assay: Ability to Inhibit amplitude of the electrically stimulated guinea pig ileum by 50%; Inactive at 3.2E-6 concentration. Format: functional, organism-based.
In the case of `CC(C)[C@H](NC(=O)CNC(=O)[C@@H](N)Cc1ccc(O)cc1)C(=O)NC1CCc2ccccc21` (some centres undefined), the IC50 entry is listed as “Not Active”.

The species named for the next assay is Cavia porcellus. Kind of assay: Ability to Inhibit amplitude of the electrically stimulated guinea pig ileum by 50%; Inactive at 2.19E-4 concentration. Format: functional, organism-based.
On to `NCCc1ccc(O)cc1` [TYRAMINE], for which the IC50 result was “Not Active”.

The species entered for a further assay is Cavia porcellus. Kind of assay: Inhibition of contraction of electrically stimulated guinea pig ileum. Format: functional, organism-based.
`C[C@@H](NC(=O)[C@@H](N)Cc1ccc(O)cc1)C(=O)NCC(=O)OCc1ccccc1`: the IC50 stood at 220 nM.
Still for that read-out and setting: the value for `CN1CC[C@]23c4c5ccc(O)c4O[C@H]2[C@@H](O)C=C[C@H]3[C@H]1C5` was 1.6 nM; that for `CSCC[C@H](NC(=O)[C@H](Cc1ccccc1)NC(=O)CNC(=O)[C@H](NC(=O)[C@@H](N)Cc1ccc(O)cc1)C(C)C)C(N)=O` was 16 nM.
Consider `CC(C)[C@H](NC(=O)[C@@H](N)Cc1ccc(O)cc1)C(=O)NCC(=O)NC1CCc2ccccc21` (some centres undefined), for which 1400 nM corresponded to half-maximal inhibition (IC50).
Take `CC(C)[C@H](NC(=O)CNC(=O)[C@@H](N)Cc1ccc(O)cc1)C(=O)NC1CCc2ccccc21` (some centres undefined): the concentration for half-maximal inhibition (IC50) was determined as 9030 nM.
The same measure, in the same setting: the value for `CCOC(=O)CC[C@H](N)C(=O)N[C@H](C)C(=O)NCC(=O)N[C@@H](Cc1ccccc1)C(=O)N[C@H](CC(C)C)C(=O)O` was 7330 nM; that for `C[C@@H](NC(=O)[C@@H](N)Cc1ccc(O)cc1)C(=O)NCC(=O)NC1CCc2ccccc21` (some centres undefined) was 40 nM; that for `CC(C)[C@H](NC(=O)[C@](C)(Cc1ccccc1)NC(=O)CNC(=O)[C@@H](C)NC(=O)[C@@H](N)Cc1ccc(O)cc1)C(=O)O` was 125 nM.
In the case of `CC(NC(=O)[C@@H](N)Cc1ccc(O)cc1)C(=O)NCC(=O)NCC1CC1` (stereo in doubt), the IC50 was 480 nM.
The molecule `CC(NC(=O)[C@@H](N)Cc1ccc(O)cc1)C(=O)NCC(=O)N[C@@](C)(Cc1ccccc1)C(=O)O` (stereo in doubt) came in with an IC50 of 75 nM.
Same read-out and setting: the value for `CC(NC(=O)[C@@H](N)Cc1ccc(O)cc1)C(=O)NCC(=O)NC1Cc2ccccc2C1` (stereo in doubt) was 9010 nM.
Consider `CC(C)CC(NC(=O)[C@H](CC1CCCCC1)NC(=O)CNC(=O)C(C)NC(=O)[C@@H](N)Cc1ccc(O)cc1)C(=O)O` (stereo in doubt), for which the IC50 is 9 nM.
Take `CC(NC(=O)[C@@H](N)Cc1ccc(O)cc1)C(=O)NCC(=O)NCc1ccccc1` (stereo in doubt): the IC50 turned out to be 140 nM.
`CC(C)C[C@@H](NC(=O)[C@](C)(Cc1ccccc1)NC(=O)CNC(=O)C(C)NC(=O)[C@@H](N)Cc1ccc(O)cc1)C(=O)O` (stereo in doubt) had an IC50 of 42 nM.
Molecule `CC(NC(=O)[C@@H](N)Cc1ccc(O)cc1)C(=O)NCC(=O)O` (stereo in doubt) came in with an IC50 of 24400 nM.
With `CC(NC(=O)[C@@H](N)Cc1ccc(O)cc1)C(=O)NCC(=O)NCC1CCC1` (stereo in doubt), the IC50 was determined as 320 nM.
For `CC(NC(=O)[C@@H](N)Cc1ccc(O)cc1)C(=O)NCC(=O)NCCc1ccccc1` (stereo in doubt), it took 98 nM to reach half-maximal inhibition (IC50).
For `CC(C)C[C@@H](NC(=O)[C@H](Cc1ccccc1)NC(=O)CNC(=O)[C@@H](C)NC(=O)[C@@H](N)Cc1ccc(O)cc1)C(=O)O` [DADLE], the IC50 came to 17 nM.

The species named for another assay is Cavia porcellus. Kind of assay: Ability to Inhibit amplitude of the electrically stimulated guinea pig ileum by 50%; Inactive at 2.71E-6. Format: functional, organism-based.
`CC(NC(=O)[C@@H](N)Cc1ccc(O)cc1)C(=O)NCC(=O)NC1Cc2ccccc2C1` (stereo in doubt): the IC50 result is “Not Active”.

(Values after ChEMBL document CHEMBL1121541, “Novel analogues of enkephalin: indentification of functional groups required for biological activity” (J Med Chem, 1980).)
